IC50 data for one compound are collected here from BindingDB's records for doi:10.1021/jm0490641 (Boehringer Ingelheim Pharma, 2005).

Broadly, the IC50 is the midpoint of a concentration-inhibition curve.

The target in the test is Calcitonin gene-related peptide receptor (Callithrix jacchus). Kind of test: Affinity against calcitonin gene related peptide receptor (1 uM) in marmoset tissue homogenates using [125I]CGRP as radioligand after 180 minutes of incubation at pH 7.40. The following applies: pH 7.4.

On to `NCCCC[C@@H](NC(=O)[C@H](Cc1cc(Br)c(O)c(Br)c1)NC(=O)N1CCC(n2c(=O)[nH]c3ccccc32)CC1)C(=O)N1CCN(c2ccncc2)CC1` [4-(2-Oxo-2,3-dihydro-benzoimidazol-1-yl)-piperidine-1-carboxylic acid [(S)-1-[(R)-5-amino-1-(4-pyridin-4-yl-piperazine-1-carbonyl)-pentylcarbamoyl]-2-(3,5-dibromo-4-hydroxy-phenyl)-ethyl]-amide], for which the IC50 turned out to be 2.7 nM.
